This is an account of results in patent US20240352419A1, “METHODS AND COMPOSITIONS FOR DIFFERENTIATION OF PLURIPOTENT STEM CELLS AND DERIVED HEMATOPOIETIC LINEAGE CELLS” (NUWACELL BIOTECHNOLOGIES CO., LTD., priority 2022, published 2024).

Holding throughout (assay type): cell-based
For data set [1], the system named is PBNK cells. The data set can be described thus: Expansion of PBNK cells from PBMCs (expansion fold, CD56+CD3- percentage by flow cytometry). The conditions noted are these: effect of heparin sodium concentration (0-50 μg/mL) in NKSFM. Here is the method:
The effect of the concentration of nicotinamide (NAM) in an exemplary basal medium on NK cell expansion was evaluated. The above basal medium comprised the following components: IMDM (Sigma):RPMI1640 (Gibco) (50%: 50%); about 1.3 ng/ml of Cupric sulfate, about 3 μM of Ferric sulfate, about 0.432 μg/mL of Zinc sulfate, about 1˜50 ng/ml of Na Selenite, about 110 μg/mL of Sodium pyruvate, 0.1˜20 μg/mL of Insulin, 1˜200 μg/mL of Transferrin, about 1% (v/v) of GlutaMAX-1, 0.1˜20 mg/mL of HSA, 1˜400 μM of MTG, about 80 μg/mL of Ascorbic acid and indicated concentration of NAM. Peripheral blood mononuclear cells (PBMCs) were isolated by density gradient centrifugation using Ficoll-Paque. On Day 0, PBMCs were plated at 1×10^6 cells/mL in a 48-well-plate in the basal medium with NAM (either 0, 1, 2, 2.5, 3, 3.5, 4, or 5 mM) and stimulated with the following reagents for 3 days: immobilized CD16 antibody (Biolegend, 302014) (135 ng/cm^2), IL-2 (700 IU/mL), IL-15 (10 ng/ml) and OK432 (0.01 KE/mL). On day 3, cells were re-suspended in the above basal medium supplemented with IL-2 (700 IU/mL) and IL-15 (10 ng/mL). Fresh medium was added every other day to maintain cell density below 2×10^6 cells/mL. Cells were collect on Day 14 and stained with CD56-PE and CD3-PerCP-Cy5.5 antibodies, the percentage of CD56^+CD3^− NK cells was analyzed by flow cytometry.
(§1) The effect of heparin sodium concentration in an exemplary NKSFM on NK cell expansion was also evaluated. NKSFM comprised the following components: IMDM (Sigma):DMEM/F12 (Gibco) (50%: 50%); about 20 μM of Ethanolamine, about 1˜50 ng/ml of Na Selenite, about 110 μg/mL of Sodium pyruvate, 0.1˜20 μg/mL of Insulin, 1˜200 μg/mL of Transferrin, about 1% (v/v) of GlutaMAX-1, 0.1˜20 mg/mL of Human serum albumin, 1˜400 μM of MTG, about 80 μg/mL of Ascorbic acid, about 1˜5 mM of NAM, 4% (v/v) of PLT, and indicated concentration of heparin sodium. PBMCs were isolated by density gradient centrifugation using Ficoll-Paque. On Day 0, PBMCs were plated at 1×10^6 cells/mL in a 48-well-plate in NKSFM with heparin sodium (0, 0.5, 1, 3, 10, 30, or 50 μg/mL) and stimulated with the following reagents for 3 days: immobilized CD16 antibody (Biolegend, 302014) (135 ng/cm^2), OK432 (0.01 KE/mL), NeoIL-2 (50 ng/ml), IL-12 (10 ng/mL), IL-18 (50 ng/mL). […] Cells were collect on Day 13 and stained with CD56-PE and CD3-PerCP-Cy5.5 antibodies, the percentage of CD56^+CD3^− NK cells was analyzed by flow cytometry. The specific lysis of K562 tumor cells by NK cells were assessed by CFSE/7-AAD cytotoxicity assay. […] After incubation for 4 hours, cells were stained with 7-AAD (Live/dead staining) and analyzed with flow cytometry.
The effect of PLT percentage (v/v) in an exemplary NKSFM on NK cell expansion was evaluated. […]
A general note: Flow cytometry measures light scatter and fluorescence of single cells or particles in a stream.

For data set [2], the system named is K562 tumor cells. Put plainly: CFSE/7-AAD cytotoxicity assay of expanded NK cells. The conditions noted are these: effect of heparin sodium concentration in NKSFM, E:T 3:1, 4 hours, FIG. 3C. Here is the method:
as §1, with “Ficoll-Paque.” for “Ficoll-Paque. On Day 0, PBMCs were plated at 1×10^6 cells/mL in a 48-well-plate in NKSFM with heparin sodium (0, 0.5, 1, 3, 10, 30, or 50 μg/mL) and stimulated with the following reagents for 3 days: immobilized CD16 antibody (Biolegend, 302014) (135 ng/cm^2), OK432 (0.01 KE/mL), NeoIL-2 (50 ng/ml), IL-12 (10 ng/mL), IL-18 (50 ng/mL).”
The effect of PLT percentage (v/v) in an exemplary NKSFM on NK cell expansion was evaluated. […] Cells were collect on Day 14 and stained with CD56-PE and CD3-PerCP-Cy5.5 antibodies, the percentage of CD56^+CD3^− NK cells was analyzed by flow cytometry. The specific lysis of K562 tumor cells by NK cells were assessed by CFSE/7-AAD cytotoxicity assay. […]

Data set [3] concerns K562 cells. The data set can be described thus: Cytotoxicity of Stage 3 iNK cells by CFSE/7AAD assay. The conditions noted are these: added to Stage 3 medium (IL-10 20 ng/mL, IL-18 50 ng/mL), E:T 3:1, 4 hr, FIG. 13A. The protocol:
hiPSCs were prepared as described in CN108373998B. On Day −1, Embryoid body (EB) formation (Stage 1-1) was carried out by placing individualized hiPSCs in E8 medium containing 10 μM Blebbistatin in T25 flasks on a bellydancer and culture overnight. On Day 0, lateral mesoderm differentiation (Stage 1-2) was initiated by changing the medium to a Stage 1-2 differentiation medium comprising IF-4 basal medium and supplemented with BMP4 (25 ng/mL), VEGF (15 ng/ml), bFGF (0.5 ng/mL) and CHIR99021 (4 μM) for 2 days. On Day 2, lateral mesoderm differentiation (Stage 1-3) continued for 1 day in a Stage 1-3 differentiation medium comprising IF-4 basal medium and supplemented with BMP4 (25 ng/mL), VEGF (50 ng/mL) and bFGF (0.5 ng/mL) and CHIR99021 (1 μM). On Day 3, HE specification (Stage 1-4) was initiated by adding a Stage 1-4 differentiation medium comprising IF-4 basal medium and supplemented with VEGF (15 ng/ml), bFGF (5 ng/ml), XAV939 (5 μM) for 1 day. […] On Day 11 of co-culture, iNK cells were collected and stained with CD56-PE antibody (BD, #555516), the percentage of CD56+ cells was analyzed by flow cytometry. The cytotoxicity of Stage 3 iNK cells towards K562 cells was detected by CFSE/7AAD assay after 4 hr co-culture at E:T of 3:1.

heparin sodium: the “NK cell expansion fold” value in data set [1] (Day 13, FIG. 3A) is “significantly influences”. Moreover, the “percentage of CD56+CD3− NK cells” value in data set [1] (Day 13, FIG. 3B) is listed as “minimal effect”. Besides, the “specific lysis of K562 tumor cells” value in data set [2] is recorded as “minimal effect”.
As for “IL-10: interleukin added to Stage 3 expansion and maturation medium”, the “cytotoxicity of iNK cells” value in data set [3] was “significantly improve”.
